Measured values taken from patent publication US10479780B2, “Aminopyrazole derivatives” (Chugai Seiyaku Kabushiki Kaisha, priority 2015, dated 2019).
Read-outs that look alike come from different tables or passages of the source. One block for each compound: values may come before it.

Legend:
Type in all cases: biochemical
[1] = target: T1, human Src enzyme (Homo sapiens, UniProt P12931); experiment: Src enzyme inhibitory activity (time-resolved fluorometry, biotinylated peptide phosphorylation); details: read-out: SRC_IC50
T1 construct: purchased Carna Biosciences, Inc. 08-173
In short: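 Compounds were tested for blocking tyrosine phosphorylation of a biotinylated peptide substrate by recombinant human Src. Phosphorylated product was quantified by time-resolved fluorometry using europium cryptate and XL665 conjugates, and IC50 was calculated against the compound-free control.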

[2] = target: T2, human Yes1 enzyme (Homo sapiens, UniProt P07947); experiment: Yes1 enzyme inhibitory activity (time-resolved fluorometry, biotinylated peptide phosphorylation); details: read-out: YES_IC50
T2 construct: made in house
In short: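 Inhibition was expressed against a compound-free control to give IC50, using TR-FRET read-out (Eu-cryptate anti-pTyr antibody, streptavidin-XL665).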

[3] = target: T3, human Lck enzyme (Homo sapiens, UniProt P06239); experiment: Lck enzyme inhibitory activity (time-resolved fluorometry, biotinylated peptide phosphorylation); details: read-out: LCK_IC50
T3 construct: purchased Carna Biosciences, Inc. 08-170
In short: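 Readout pairs a europium cryptate-labelled anti-phosphotyrosine antibody with XL665-streptavidin, measured by time-resolved fluorescence. IC50 derived from percent inhibition against untreated controls.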

[4] = biotinylated peptide phosphorylation

T2 sequence (P07947 whole entry): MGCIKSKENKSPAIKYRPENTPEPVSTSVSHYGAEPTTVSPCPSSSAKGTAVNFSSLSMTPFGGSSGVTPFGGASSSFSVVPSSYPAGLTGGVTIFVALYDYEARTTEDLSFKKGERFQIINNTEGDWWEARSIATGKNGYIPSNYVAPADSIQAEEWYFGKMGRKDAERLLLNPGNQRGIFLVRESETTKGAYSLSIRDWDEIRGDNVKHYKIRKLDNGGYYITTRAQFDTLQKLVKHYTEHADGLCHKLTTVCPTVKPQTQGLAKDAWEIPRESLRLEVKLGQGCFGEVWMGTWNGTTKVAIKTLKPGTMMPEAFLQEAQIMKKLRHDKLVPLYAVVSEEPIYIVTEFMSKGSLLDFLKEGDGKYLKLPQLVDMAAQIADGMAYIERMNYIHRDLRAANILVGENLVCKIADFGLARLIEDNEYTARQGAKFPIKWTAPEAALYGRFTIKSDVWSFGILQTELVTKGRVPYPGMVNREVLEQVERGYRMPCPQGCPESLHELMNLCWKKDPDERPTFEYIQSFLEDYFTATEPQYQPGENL
T1 sequence (P12931 whole entry): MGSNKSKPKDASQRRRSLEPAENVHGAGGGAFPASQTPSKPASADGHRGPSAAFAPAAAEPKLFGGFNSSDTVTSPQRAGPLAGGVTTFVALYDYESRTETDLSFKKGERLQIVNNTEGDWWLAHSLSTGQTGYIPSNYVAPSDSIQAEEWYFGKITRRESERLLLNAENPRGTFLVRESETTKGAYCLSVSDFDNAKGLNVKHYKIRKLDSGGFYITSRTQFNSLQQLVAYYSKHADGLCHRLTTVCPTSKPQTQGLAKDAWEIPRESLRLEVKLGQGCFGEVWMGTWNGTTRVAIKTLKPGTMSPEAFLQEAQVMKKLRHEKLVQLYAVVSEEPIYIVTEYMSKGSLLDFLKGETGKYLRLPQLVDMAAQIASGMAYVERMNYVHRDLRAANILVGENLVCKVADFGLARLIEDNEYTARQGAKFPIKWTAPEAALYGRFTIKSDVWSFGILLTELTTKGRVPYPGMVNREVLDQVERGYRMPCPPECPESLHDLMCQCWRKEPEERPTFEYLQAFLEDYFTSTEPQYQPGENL
T3 sequence (P06239 whole entry): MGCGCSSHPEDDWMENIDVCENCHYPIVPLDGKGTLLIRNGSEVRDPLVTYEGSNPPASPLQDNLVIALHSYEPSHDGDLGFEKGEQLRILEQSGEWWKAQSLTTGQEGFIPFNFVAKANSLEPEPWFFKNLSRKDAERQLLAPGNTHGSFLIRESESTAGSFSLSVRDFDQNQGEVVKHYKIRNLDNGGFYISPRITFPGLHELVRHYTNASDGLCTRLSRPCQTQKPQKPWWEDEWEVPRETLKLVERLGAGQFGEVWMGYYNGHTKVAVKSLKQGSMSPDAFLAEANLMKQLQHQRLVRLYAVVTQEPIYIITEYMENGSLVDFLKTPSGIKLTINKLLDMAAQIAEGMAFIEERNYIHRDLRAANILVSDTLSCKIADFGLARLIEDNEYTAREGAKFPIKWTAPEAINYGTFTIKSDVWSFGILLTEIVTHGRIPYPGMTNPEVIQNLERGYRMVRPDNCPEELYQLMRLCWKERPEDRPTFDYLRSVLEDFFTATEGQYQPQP

Structure (SMILES): COc1ccnc(S(=O)(=O)Nc2cc3[nH]c(C(=O)c4cnn(-c5ccc(Oc6ccccc6F)cc5C)c4N)cc3cc2C)c1 [Example 5-1-510, N-[2-[5-amino-1-[4-(2-fluorophenoxy)-2-methylphenyl]pyrazole-4-carbonyl]-5-methyl-1H-indol-6-yl]-4-methoxypyridine-2-sulfonamide]
IC50 [1, 4]: 230 nM
IC50 [2, 4]: 0.92 nM
IC50 [3, 4]: 89 nM

Structure (SMILES): CONS(=O)(=O)Nc1cc2[nH]c(C(=O)c3cnn(-c4ccc(Oc5ccccc5F)cc4C)c3N)cc2cc1F [Example 4-5-009, [5-amino-1-[4-(2-fluorophenoxy)-2-methylphenyl]pyrazol-4-yl]-[5-fluoro-6-(methoxysulfamoylamino)-1H-indol-2-yl]methanone]
IC50 [1, 4]: 35 nM
IC50 [2, 4]: 0.68 nM
IC50 [3, 4]: 12 nM

Structure (SMILES): Cc1cc(Oc2ccccc2F)ccc1-n1ncc(C(=O)c2cc3cc(F)c(NS(=O)(=O)NC(C)C)cc3[nH]2)c1N [Example 4-5-004, [5-amino-1-[4-(2-fluorophenoxy)-2-methylphenyl]pyrazol-4-yl]-[5-fluoro-6-(propan-2-ylsulfamoylamino)-1H-indol-2-yl]methanone]
IC50 [1, 4]: 65 nM
IC50 [2, 4]: 3.3 nM
IC50 [3, 4]: 41 nM

Structure (SMILES): Cc1cc(Oc2ccccc2F)ccc1-n1ncc(C(=O)c2cc3cc(F)c(NS(=O)(=O)NC4CCC4)cc3[nH]2)c1N [Example 4-5-006, [5-amino-1-[4-(2-fluorophenoxy)-2-methylphenyl]pyrazol-4-yl]-[6-(cyclobutylsulfamoylamino)-5-fluoro-1H-indol-2-yl]methanone]
IC50 [1, 4]: 140 nM
IC50 [2, 4]: 6.8 nM
IC50 [3, 4]: 62 nM

Structure (SMILES): Cc1cc(-n2ncc(C(=O)c3cc4cc(OC5CCN(C(C)C)CC5)c(N5C(=O)N[C@@H](C(C)C)C5=O)cc4[nH]3)c2N)ccc1Oc1ccccc1F [Example 5-1-295, (5S)-3-[2-[5-amino-1-[4-(2-fluorophenoxy)-3-methylphenyl]pyrazole-4-carbonyl]-5-(1-propan-2-ylpiperidin-4-yl)oxy-1H-indol-6-yl]-5-propan-2-ylimidazolidine-2,4-dione]
IC50 [1]: 700 nM
IC50 [2]: 1.5 nM
IC50 [3]: 64 nM

Structure (SMILES): Cc1cc(-n2ncc(C(=O)c3cc4cc(OC(F)F)c(N5CCN(S(C)(=O)=O)CC5)cc4[nH]3)c2N)ccc1Oc1ccccc1F [Example 5-1-175, [5-amino-1-[4-(2-fluorophenoxy)-3-methylphenyl]pyrazol-4-yl]-[5-(difluoromethoxy)-6-(4-methylsulfoNylpiperazin-1-yl)-1H-indol-2-yl]methanone]
IC50 [1]: 350 nM
IC50 [2]: 2.4 nM
IC50 [3]: 74 nM

Structure (SMILES): Cc1cc(Oc2ccccc2)cc(F)c1-n1ncc(C(=O)c2cc3cc(Cl)c(NS(C)(=O)=O)cc3[nH]2)c1N [Example 4-2-084, N-[2-[5-amino-1-(2-fluoro-6-methyl-4-phenoxyphenyl)pyrazole-4-carbonyl]-5-chloro-1H-indol-6-yl]methanesulfonamide]
IC50 [1, 4]: 160 nM
IC50 [2, 4]: 6.3 nM
IC50 [3, 4]: 73 nM

Structure (SMILES): Cc1cc(Oc2ccccc2F)cc(F)c1-n1ncc(C(=O)c2cc3cc(OC(F)F)c(NC4COC4)cc3[nH]2)c1N [Example 4-23-011, [5-amino-1-[2-fluoro-4-(2-fluorophenoxy)-6-methylphenyl]pyrazol-4-yl]-[5-(difluoromethoxy)-6-(oxetan-3-ylamino)-1H-indol-2-yl]methanone]
IC50 [1, 4]: 63 nM
IC50 [2, 4]: 7.6 nM
IC50 [3, 4]: 19 nM

Structure (SMILES): Cc1cc(-n2ncc(C(=O)c3cc4cc(OC5CCN(C6CC6)CC5)c(Br)cc4[nH]3)c2N)ccc1Oc1ccccc1F [Example 5-1-219, [5-amino-1-[4-(2-fluorophenoxy)-3-methylphenyl]pyrazol-4-yl]-[6-bromo-5-(1-cyclopropylpiperidin-4-yl)oxy-1H-indol-2-yl] methanone]
IC50 [1]: 460 nM
IC50 [2]: 1.3 nM
IC50 [3]: 83 nM

Structure (SMILES): Cc1cc(Oc2ccccc2F)ccc1-n1ncc(C(=O)c2cc3cc(OCC(F)F)c(N4C(=O)NC5(CCN(Cc6ccccc6)CC5)C4=O)cc3[nH]2)c1N [Example 5-1-277, 3-[2-[5-amino-1-[4-(2-fluorophenoxy)-2-methylphenyl]pyrazole-4-carbonyl]-5-(2,2-difluoroethoxy)-1H-indol-6-yl]-8-benzyl-1,3,8-triazaspiro[4.5]decane-2,4-dione]
IC50 [1]: 39 nM
IC50 [2]: 1.5 nM
IC50 [3]: 12 nM

More lines, now with the values ahead:

IC50 [1, 4]: 660 nM
IC50 [2, 4]: 12 nM
IC50 [3, 4]: 280 nM
Structure (SMILES): Cc1cc2cc(C(=O)c3cnn(-c4cnc(Oc5c(F)cccc5F)cc4C)c3N)[nH]c2cc1NS(=O)(=O)c1cncc(Cl)c1 [Example 5-1-541, N-[2-[5-amino-1-[6-(2,6-difluorophenoxy)-4-methylpyridin-3-yl]pyrazole-4-carbonyl]-5-methyl-1H-indol-6-yl]-5-chloropyridine-3-sulfonamide]

IC50 [1, 4]: 3.2 nM
IC50 [2, 4]: 0.59 nM
IC50 [3, 4]: 1.4 nM
Structure (SMILES): Cc1cc(Oc2ccccc2F)ncc1-n1ncc(C(=O)c2cc3cc(NS(C)(=O)=O)c(OCCN4CCOCC4)cc3[nH]2)c1N [Example 4-2-129]

IC50 [1, 4]: 140 nM
IC50 [2, 4]: 3.9 nM
IC50 [3, 4]: 62 nM
Structure (SMILES): Cc1cc(Oc2c(F)cccc2F)ncc1-n1ncc(C(=O)c2cc3cc(N4CCOCC4)c(NS(=O)(=O)CCCF)cc3[nH]2)c1N [Example 4-24-019, N-[2-[5-amino-1-[6-(2,6-difluorophenoxy)-4-methylpyridin-3-yl]pyrazole-4-carbonyl]-5-morpholin-4-yl-1H-indol-6-yl]-3-fluoropropane-1-sulfonamide]

IC50 [1, 4]: 11 nM
IC50 [2, 4]: 1.4 nM
IC50 [3, 4]: 4.1 nM
Structure (SMILES): Cc1cc(Oc2c(F)cccc2F)ncc1-n1ncc(C(=O)c2cc3cc(OCC(F)F)c(N4CCCS4(=O)=O)cc3[nH]2)c1N [Example 4-25-011, [5-amino-1-[6-(2,6-difluorophenoxy)-4-methylpyridin-3-yl]pyrazol-4-yl]-[5-(2,2-difluoroethoxy)-6-(1,1-dioxo-1,2-thiazolidin-2-yl)-1H-indol-2-yl]methanone]

IC50 [1, 4]: 51 nM
IC50 [2, 4]: 0.81 nM
IC50 [3, 4]: 7.6 nM
Structure (SMILES): Cc1cc(Oc2ccccc2F)ncc1-n1ncc(C(=O)c2cc3cc(Cl)c(NS(C)(=O)=O)cc3[nH]2)c1N [Example 4-2-085, N-[2-[5-amino-1-[6-(2-fluorophenoxy)-4-methylpyridin-3-yl]pyrazole-4-carbonyl]-5-chloro-1H-indol-6-yl]methanesulfonamide]

IC50 [1]: 61 nM
IC50 [2]: 4.5 nM
IC50 [3]: 11 nM
Structure (SMILES): Cc1cc(Oc2ccccc2F)ncc1-n1ncc(C(=O)c2cc3cc(F)c(N4C(=O)NC(C)(C)C4=O)cc3[nH]2)c1N [Example 5-1-379, 3-[2-[5-amino-1-[6-(2-fluorophenoxy)-4-methylpyridin-3-yl]pyrazole-4-carbonyl]-5-fluoro-1H-indol-6-yl]-5,5-dimethylimidazolidine-2,4-dione]

IC50 [1]: 15 nM
IC50 [2]: 1.8 nM
IC50 [3]: 4.8 nM
Structure (SMILES): Cc1cc(Oc2ccccc2F)ccc1-n1ncc(C(=O)c2cc3cc(F)c(N4CCOCC4)cc3[nH]2)c1N [Example 5-1-119, [5-amino-1-[4-(2-fluorophenoxy)-2-methylphenyl]pyrazol-4-yl]-(5-fluoro-6-morpholin-4-yl-1H-indol-2-yl)methanone]

IC50 [1]: 480 nM
IC50 [2]: 2.1 nM
IC50 [3]: 120 nM
Structure (SMILES): Cc1cc(-n2ncc(C(=O)c3cc4cc(OCC(F)F)c(N)cc4[nH]3)c2N)ccc1Oc1ccccc1F [Example 5-1-162, [6-amino-5-(2,2-difluoroethoxy)-1H-indol-2-yl]-[5-amino-1-[4-(2-fluorophenoxy)-3-methylphenyl]pyrazol-4-yl]methanone]

IC50 [1]: 3.3 nM
IC50 [2]: 0.34 nM
IC50 [3]: 2 nM
Structure (SMILES): Cc1cc(Oc2c(F)cccc2F)ncc1-n1ncc(C(=O)c2cc3cc(OC4CCN(CCO)CC4)c(Br)cc3[nH]2)c1N [Example 5-1-226, [5-amino-1-[6-(2,6-difluorophenoxy)-4-methylpyridin-3-yl]pyrazol-4-yl]-[6-bromo-5-[1-(2-hydroxyethyl)piperidin-4-yl]oxy-1H-indol-2-yl]methanone]

IC50 [1]: 18 nM
IC50 [2]: 9.9 nM
IC50 [3]: 40 nM
Structure (SMILES): Cc1cc(Oc2ccccc2F)ccc1-n1ncc(C(=O)c2cc3cc(OCC(F)F)c(N4C(=O)OC[C@H]4Cc4ccccc4)cc3[nH]2)c1N [Example 5-1-244, (4R)-3-[2-[5-amino-1-[4-(2-fluorophenoxy)-2-methylphenyl]pyrazole-4-carbonyl]-5-(2,2-difluoroethoxy)-1H-indol-6-yl]-4-benzyl-1,3-oxazolidin-2-one]

IC50 [1]: 48 nM
IC50 [2]: 2.4 nM
IC50 [3]: 13 nM
Structure (SMILES): Cc1cc2cc(C(=O)c3cnn(-c4ccc(Oc5ncccc5Cl)cc4Cl)c3N)[nH]c2cc1N1CCCS1(=O)=O [Example 5-1-062, [5-amino-1-[2-chloro-4-(3-chloropyridin-2-yl)oxyphenyl]pyrazol-4-yl]-[6-(1,1-dioxo-1,2-thiazolidin-2-yl)-5-methyl-1H-indol-2-yl] methanone]

IC50 [1]: 23 nM
IC50 [2]: 7.1 nM
IC50 [3]: 57 nM
Structure (SMILES): Cc1cc(Oc2ccccc2F)ccc1-n1ncc(C(=O)c2cc3cc(OCC(F)F)c(N4C(=O)OC[C@@H]4Cc4ccccc4)cc3[nH]2)c1N [Example 5-1-245, (4S)-3-[2-[5-amino-1-[4-(2-fluorophenoxy)-2-methylphenyl]pyrazole-4-carbonyl]-5-(2,2-difluoroethoxy)-1H-indol-6-yl]-4-benzyl-1,3-oxazolidin-2-one]
